Experimental data: patent US20250230193A1, “CYCLIC COMPOUND HAVING SELECTIVE KRAS INHIBITORY EFFECT ON HRAS AND NRAS” (CHUGAI SEIYAKU KABUSHIKI KAISHA, priority 2022, published 2025)
Where a SMILES comes first, the peptide text is derived from it. Bridges are numbered along the chain shown (N, C = ends). [ ]: non-standard residue; d: D form. The star is where a group is joined. hPhe(3-Cl-4-CF3) = N[C@@H](CCc1ccc(C(F)(F)F)c(Cl)c1)C(=O)O; NPrPhe(4-CF3) = CCCN[C@@H](Cc1ccc(C(F)(F)F)cc1)C(=O)O; NMePhe(4-Me) = CN[C@@H](Cc1ccc(C)cc1)C(=O)O; NMeGly(cPent) = CN[C@H](C(=O)O)C1CCCC1; Pro(4S-Me) = C[C@@H]1CN[C@H](C(=O)O)C1; NMeD = CN[C@@H](CC(=O)O)C(=O)O; NMeL = CN[C@@H](CC(C)C)C(=O)O; Morpholide = C1CN(*)CCO1; NMeA = CN[C@@H](C)C(=O)O; Ac5c = NC1(C(=O)O)CCCC1; Aze = O=C(O)[C@@H]1CCN1; Sar = CNCC(=O)O

Legend:
[1] = biological target: GDP-bound NRAS wild-type protein (Homo sapiens, UniProt P01111); test: Binding to NRAS by surface plasmon resonance (SPR), Single Cycle Kinetics
[2] = biological target: GDP-bound HRAS wild-type protein (Homo sapiens, UniProt P01112); test: Binding to HRAS by surface plasmon resonance (SPR), Single Cycle Kinetics
[3] = SPR, GDP-bound NRAS wild-type vs GDP-bound KRAS wild-type
[4] = SPR, GDP-bound HRAS wild-type vs GDP-bound KRAS wild-type
[5] = KD ratio, GDP-bound NRAS wild-type vs GDP-bound KRAS wild-type, SPR
[6] = KD ratio, GDP-bound HRAS wild-type vs GDP-bound KRAS wild-type, SPR

GDP-bound NRAS wild-type protein, sequence (P01111 whole entry): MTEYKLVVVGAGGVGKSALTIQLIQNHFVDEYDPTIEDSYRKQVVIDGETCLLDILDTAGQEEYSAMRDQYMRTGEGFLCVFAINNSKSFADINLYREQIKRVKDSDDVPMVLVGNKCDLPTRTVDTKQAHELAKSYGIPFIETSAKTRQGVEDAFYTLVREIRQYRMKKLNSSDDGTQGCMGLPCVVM
GDP-bound HRAS wild-type protein, sequence (P01112 whole entry): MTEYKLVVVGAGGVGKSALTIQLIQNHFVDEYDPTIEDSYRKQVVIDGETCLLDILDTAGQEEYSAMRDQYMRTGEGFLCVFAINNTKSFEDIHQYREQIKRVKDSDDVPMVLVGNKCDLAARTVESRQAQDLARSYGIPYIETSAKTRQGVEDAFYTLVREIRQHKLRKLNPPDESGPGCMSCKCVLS

CC[C@H](C)[C@@H]1NC(=O)[C@H](CC(C)C)N(C)C(=O)C[C@@H](C(=O)N2CCOCC2)N(C)C(=O)[C@H](C2CCCC2)N(C)C(=O)C2(CCCC2)NC(=O)[C@@H]2CCCN2C(=O)[C@H](CCc2ccc(C(F)(F)F)c(Cl)c2)NC(=O)CN(C)C(=O)[C@H](Cc2ccc(C)cc2)N(C)C(=O)[C@@H]2CCN2C(=O)[C@H](C)N(C)C1=O [PP0001] ([NMeL]I[NMeA][Aze][NMePhe(4-Me)][Sar][hPhe(3-Cl-4-CF3)]P[Ac5c][NMeGly(cPent)][NMeD]-Morpholide; lactam N-11)
NRAS/KRAS (ratio of KD for GDP-bound NRAS wild-type to KD for KRAS) ([1]; KD ratio NRAS/KRAS, SPR): C (A compound having a KD ratio of 0.1 or more and less than 3 is denoted as C)
HRAS/KRAS (ratio of KD for GDP-bound HRAS wild-type to KD for KRAS) ([2]; KD ratio HRAS/KRAS, SPR): C (A compound having a KD ratio of 0.1 or more and less than 3 is denoted as C)

CC[C@H](C)[C@@H]1NC(=O)[C@H](COC)N(C)C(=O)C[C@@H](C(=O)N(C)C)N(C)C(=O)[C@H](C2CCCC2)N(C)C(=O)C2(CC(C)(C)C2)NC(=O)[C@@H]2C[C@@H](C)CN2C(=O)[C@H](CCc2ccc(C(F)(F)F)c(OC)c2)NC(=O)CN(C)C(=O)[C@H](Cc2ccc(C)cc2)N2CC/C=C\C[C@@H](C2=O)N(C)C(=O)CN(C)C1=O [PP2387]
NRAS/KRAS (ratio of KD value with respect to NRAS to KD value with respect to KRAS) [1, 3]: A (a compound having 10 or more and less than 20 is denoted as A)
HRAS/KRAS (ratio of KD value with respect to HRAS to KD value with respect to KRAS) [2, 4]: A (a compound having 10 or more and less than 20 is denoted as A)

CCCN1C(=O)[C@@H]2CCN2C(=O)CN(C)C(=O)[C@H]([C@@H](C)CC)NC(=O)[C@H](CC(C)C)N(C)C(=O)C[C@@H](C(=O)N2CCOCC2)N(C)C(=O)[C@H](C2CCCC2)N(C)C(=O)C2(CCCC2)NC(=O)[C@@H]2C[C@H](C)CN2C(=O)[C@H](CCc2ccc(C(F)(F)F)c(Cl)c2)NC(=O)CN(C)C(=O)[C@@H]1Cc1ccc(C(F)(F)F)cc1 [PP0457] ([NMeL]I[Sar][Aze][NPrPhe(4-CF3)][Sar][hPhe(3-Cl-4-CF3)][Pro(4S-Me)][Ac5c][NMeGly(cPent)][NMeD]-Morpholide; lactam N-11)
NRAS/KRAS (ratio of KD value with respect to GDP-bound NRAS wild-type protein to KD value with respect to KRAS) ([1]; KD ratio NRAS/KRAS, SPR): C (A compound having a KD ratio of 0.1 or more and less than 3 is denoted as C)
HRAS/KRAS (ratio of KD value with respect to GDP-bound HRAS wild-type protein to KD value with respect to KRAS) ([2]; KD ratio HRAS/KRAS, SPR): B (a compound having 3 or more and less than 10 is denoted as B)

CCCO[C@H](C)[C@@H]1NC(=O)[C@H](CC(C)C)N(C)C(=O)C[C@@H](C(=O)N(C)C)N(C)C(=O)[C@H](C2CCCC2)N(C)C(=O)C2(CC(C)(C)C2)NC(=O)[C@@H]2C[C@H](C)CN2C(=O)[C@H](CCc2ccc(C(F)(F)F)c(OC)c2)NC(=O)CN(C)C(=O)[C@H](Cc2ccc(C)cc2)N2CC/C=C\C[C@@H](C2=O)N(C)C(=O)CN(C)C1=O [PP2415]
NRAS/KRAS (ratio of KD value with respect to NRAS to KD value with respect to KRAS) [1, 3]: AA (a compound having 20 or more is denoted as AA)
HRAS/KRAS (ratio of KD value with respect to HRAS to KD value with respect to KRAS) [2, 4]: A (a compound having 10 or more and less than 20 is denoted as A)

CCC[C@H]1C(=O)N[C@@H]([C@@H](C)CC)C(=O)N(C)CC(=O)N(C)[C@H]2C/C=C\CCN(C2=O)[C@@H](Cc2ccc(C)cc2)C(=O)N(C)CC(=O)N[C@@H](CCc2ccc(C(F)(F)F)c(OC)c2)C(=O)N2C[C@@H](C)C[C@H]2C(=O)NC2(CC(C)(C)C2)C(=O)N(C)[C@@H](C2CCCC2)C(=O)N(C)[C@H](C(=O)N(C)CC)CC(=O)N1C [PP1889]
NRAS/KRAS (ratio of KD value for NRAS to KD value for KRAS) [1, 5]: A (a compound having 10 or more and less than 20 is denoted as A)
HRAS/KRAS (ratio of KD value for HRAS to KD value for KRAS) [2, 6]: B (a compound having 3 or more and less than 10 is denoted as B)

CC[C@H](C)[C@@H]1NC(=O)[C@H](CC)N(C)C(=O)C[C@@H](C(=O)N(C)C)N(C)C(=O)[C@H](C2CCCC2)N(C)C(=O)C2(CCC2)NC(=O)[C@H](COCCC(C)C)N(C)C(=O)[C@H](CCc2cc(F)c(C(F)(F)F)c(F)c2)NC(=O)CN(C)C(=O)[C@H](Cc2ccc(C(F)(F)F)cc2)N2CC/C=C\C[C@@H](C2=O)N(C)C(=O)CN(C)C1=O [PP1148]
NRAS/KRAS (ratio of KD value with respect to NRAS to KD value with respect to KRAS) [1, 5]: A (a compound having 10 or more and less than 20 is denoted as A)
HRAS/KRAS (ratio of KD value with respect to HRAS to KD value with respect to KRAS) [2, 6]: A (a compound having 10 or more and less than 20 is denoted as A)

CCO[C@@H]1C[C@H]2C(=O)NC3(CC(C)(C)C3)C(=O)N(C)[C@@H](CC(C)(C)C)C(=O)N(C)[C@H](C(=O)N(C)C)CC(=O)N(C)[C@@H](COC)C(=O)N[C@@H]([C@@H](C)CC)C(=O)N(C3CC3)CC(=O)N(C)[C@H]3C/C=C\CCN(C3=O)[C@@H](Cc3ccc(C(F)(F)F)cc3)C(=O)N(C)CC(=O)N[C@@H](CCc3cc(F)c(C(F)(F)F)c(F)c3)C(=O)N2C1 [PP2744]
NRAS/KRAS (ratio of KD value with respect to GDP-bound NRAS wild-type protein to KD value with respect to KRAS) ([1]; KD ratio NRAS/KRAS, class symbols): A (a compound having 10 or more and less than 20 is denoted as A)
HRAS/KRAS (ratio of KD value with respect to GDP-bound HRAS wild-type protein to KD value with respect to KRAS) ([2]; KD ratio HRAS/KRAS, class symbols): A (a compound having 10 or more and less than 20 is denoted as A)
